Laboratory results: patent US20070249591A1, “Biaryl Amino Acids and Their Use in Dna Binding Oligomers” (Spirogen Limited, priority 2004, published 2007)

System: MS2 DNA sequence
Assay: DNA footprinting study against the MS2 DNA sequence
Type: binding, bacteriophage
Conditions: cleavage pattern on electrophoresis gel
Procedure: In order to assess the binding of test compounds to DNA, a footprinting study against the MS2 DNA sequence was carried out. The sequence is as follows:
and is derived from a bacteriophage.
The footprinting technique in the context of DNA allows the determination of binding sites for drugs or biological macromolecules. It relies on the fact that DNA is cleaved relatively non-specifically by free radicals (e.g. hydroxyl radical footprinting) or enzymes (e.g. DNase I footprinting). Thus if DNA is 32p end labelled on one strand (so that it may be observed autoradiographically) and exposed to the cleavage agent for a certain time, then a laddering pattern may be seen when the resulting fragments are separated by gel electrophoresis (separation on the basis of size). If a compound which binds to DNA is added prior to the cleavage agent then this hinders access of the enzyme or radical to the DNA and blocks cleavage at the molecule binding site. Thus if the compound binds discretely then a specific cleavage block should be seen on the gel relative to the DNA not treated with compound, which is termed the ‘footprint’. (see FIG. 1)

`CCOC(=O)c1csc(-c2ccc(NC(=O)c3csc(-c4ccc(NC(=O)CCCN(C)C)cc4)n3)cc2)n1` [Compound 9, Ethyl 2-[4-({2-[4-(4-dimethylaminobutyrylamino)phenyl]thiazole-4-carbonyl}amino)phenyl]thiazole-4-carboxylate] was tested, and the coating event was “no clear coating event” and the specific footprinting activity was “no specific footprinting activity”.
